Laboratory results published in US20130150399A1, “INHIBITORS OF THE UNFOLDED PROTEIN RESPONSE AND METHODS FOR THEIR USE” (The Board of Trustees of the Leland Stanford Junior …, priority 2006, published 2013).

Key:
XBP-1s = assay: Western immunoblot of XBP-1s, HT1080 cells; assay type: cell-based, human
Experimental: Cells were harvested, lysed, and analyzed by Western blot using anti-XBP-1 antisera (lower panel) or anti-HIF-1 antisera (top panel) to confirm hypoxia exposure.
Cells (2×10^6) were cultured in 10-cm dishes, collected using a cell scraper at 4° C., and lysed by addition of 150 μl cell lysis buffer [50 mM Tris pH 7.4, 150 mM NaCl, 10% glycerol, 0.5% Triton X-100. 0.5% NP-40, 2 mM Na3VO4, 20 mM beta-glycerophosphate, 10 mM NaF, 1 mM DTT, 1 mM PMSF). Lysates were centrifuged for 5 min at 10,000×g, and proteins (˜40 μg) were resolved by SDS-PAGE followed by semi-dry transfer to nitrocellulose membranes. Membranes were blocked in TBS-5% milk supplemented with 0.1% Tween-20. […] After washing in block solution, immunoreactive material was detected by enhanced chemiluminescence (SuperSignal West Dura Extended, Pierce, Inc., Rockville, Ill.).
A. XBP-luciferase reporter construct. […] After 24 hours, luciferase activity was analyzed in an automated plate reader. For each cell line, values are expressed as the percent inhibition of the median for Tm/Tg-treated wells, corrected for background. […] Values are expressed as the fold increases over uninduced levels. […] Cells were harvested, lysed, and analyzed by immunoblotting with antisera specific for HIF-1α (top), XBP-1s (middle) or actin (bottom). […] Total RNA was analyzed by Northern blotting using radiolabeled probes specific for P58^IPK or DER-1. […]

HT1080 fibrosarcoma = assay: Cell proliferation assay, HT1080; assay type: cell-based, human; conditions: normal conditions; same concentrations
Experimental: A. Effect of irestatin 9389 on PERK and ATF6 pathways. HT1080 cells were treated with vehicle alone (lanes 1-4) or 2.5 μM irestatin 9389 (lanes 5-8) and cultured under aerobic conditions for 18 hours (N) or shifted to hypoxia for the indicated times. Protein lysates were analyzed by Western blot analysis using antisera specific for ATF6 (top), CHOP/GADD153 (middle) or actin (bottom). Arrow indicates the cleaved, transcriptionally active form of ATF6. B. Cleavage of caspase-3 in irestatin-treated cells under hypoxia. HT1080 cells were cultured in normoxia (N) or under hypoxia for 36 hours (H 36) in absence or presence of irestatin 9389 (2.5 μM). Arrows indicate proteolytically cleaved caspase-3. C. Colony formation assay. HT1080 cells were treated as in B under normoxia (N) or hypoxia for 48 hours (H 48). Cells were harvested, counted, and allowed to grow under normal culture conditions for 11-12 days. Colonies were visualized with crystal violet staining. D. Quantification of clonogenic survival assay. Values represent the mean+/−SEM from at least 4 independent experiments. E. TUNEL staining of cells treated as in C. F. Quantification of TUNEL-positive cells. Values represent the mean+/− SEM from at least 3 experiments. […] Cells were harvested at the indicated times and counted by hemocytometer. Values represent the mean calculated from triplicate experiments+/−SEM.

For `Cc1csc(NC(=O)CSc2nc3c(c(C(F)(F)F)c2C#N)CCC3)n1` [Compound 9389], the “levels of XBP-1s under hypoxia” value (XBP-1s; 2 μM, 24 hours of hypoxia) was “decreased levels of XBP-1s”, the “accumulation of XBP-1s following treatment with Tm” value (XBP-1s; irestatins 2 μM, Tm (4 μg/ml) 20 hours) was “blocked the accumulation of XBP-1s” and the “growth rate of HT1080 cells” value (HT1080 fibrosarcoma) was “negligible effect on the growth rate”.
